Read-outs that look alike come from different tables or passages of the source.
Key:
HRV-4 = experiment: Time-of-addition assay, HRV-4 in MRC5 cells; assay type: cell-based; conditions: Human rhinovirus sp.
Protocol: The time-of-addition effects of all compounds on HRV-4 were examined according to the method of Choi et al.. In brief, monolayers of MRC5 cells were seeded onto a 96-well culture plate as stated previously. After washing with PBS, 100 μg/mL PA, 20 μg/mL PGG, and 100 μg/mL ribavirin were separately added onto the cells at either before (–1 h), during (0 h), or after (1, 2, 3, 4, 6, 8, 12, 16, 20, and 24 h) HRV-4 infection at 37°C. After 2 days, MTT test and antiviral activity were carried out as stated previously.

LDLR = LDLR mRNA expression, qRT-PCR in MRC5; assay type: cell-based, human; conditions: MRC5, 2 days after HRV-2 or HRV-4 infection; 100 μg/mL PA, 20 μg/mL PGG
Protocol: (§1) To evaluate the level of gene expression, real-time qRT-PCR with SYBR Green dye was carried out. HRV-2 or HRV-4 infected and noninfected cultures of MRC5 monolayers grown in 25 cm^2 cell culture flasks (Corning, NY) were treated with 100 μg/mL PA or 20 μg/mL PGG. After incubation at 37°C and 5% CO2 for 2 days, total RNA was extracted from the culture cells using the RNeasy Plus Mini Kit (Qiagen, Hilden, Germany) according to the manufacturer’s instructions. Contaminated genomic DNA was removed using RQ1 RNase-free DNase (Promega, Madison, WI). […] The PCR conditions were as follows: 50°C for 2 min, 95°C for 10 min, and then 50 cycles of 95°C for 15 s and either 60°C [β2-microglobulin (B2M), interleukin (IL)-6, IL-8, LDLR, ICAM-1, HRV-2, and HRV-4] or 58°C (B2M and IL-1β) or 55°C [B2M, Toll-like receptor 3 (TLR3), tumor necrosis factor (TNF), and interferon beta (IFNβ)] for 30 s. mRNA expression level of target gene was normalized to mRNA expression level for the housekeeping gene B2M and analyzed by the 2^–ΔΔCT method using StepOne Software v2.1 and DataAssist Software (Applied Biosystems). […]
The expressions of ICAM-1 and LDLR were examined using real-time qRT-PCR and Western blot. […] The concentrations of ICAM-1 in the test samples were determined from OD values using standard curve of each assay.

TLR3 = TLR3 mRNA expression, qRT-PCR in MRC5; assay type: cell-based, human; conditions: MRC5, 2 days after infection; 100 μg/mL PA, 20 μg/mL PGG
Protocol: as §1, with “WI). Complementary DNA (cDNA) was synthesized using 1 μg total RNA through a reverse transcription reaction using the SuperScript First-Strand Synthesis Kit (Invitrogen, Carlsbad, CA).” for “WI).”

IL-6 = IL-6 ELISA in MRC5 supernatants; assay type: cell-based, human; conditions: for IL-6 concentrations in infected cultures: HRV-2 or HRV-4 infected MRC5 supernatants, 2 days, 100 μg/mL PA, 20 μg/mL PGG
Protocol: The concentrations of IL-6, IL-8, and TNF in cell-free culture supernatants 2 days after treatment were measured using specific ELISA. OptEIA IL-6, IL-8, and TNF ELISA kits (BD Biosciences, San Diego, CA) were used for the assays. The sensitivities of these ELISA assays were 2.2, 0.8, and 2.0 pg/mL, respectively. The concentrations of IL-6, IL-8, and TNF in the test samples were determined from OD values using standard curve of each assay.

HRV-2 = experiment: Real-time qRT-PCR of HRV-2 RNA replication in MRC5 cells; assay type: cell-based, human rhinovirus; conditions: MRC5, 2 days after infection; 100 μg/mL PA, 20 μg/mL PGG; vs untreated cultures
Protocol: as §1, with “WI). Complementary DNA (cDNA) was synthesized using 1 μg total RNA through a reverse transcription reaction using the SuperScript First-Strand Synthesis Kit (Invitrogen, Carlsbad, CA).” for “WI).”

mICAM-1 = experiment: Western blot of mICAM-1 in MRC5 cells; assay type: cell-based, human; conditions: MRC5, 2 days, HRV-2 or HRV-4, 100 μg/mL PA, 20 μg/mL PGG
Protocol: Cell lysates from infected and noninfected MRC5 cultures 2 days after incubation with or without test compounds were obtained in RIPA buffer and 1% mammalian cell protease inhibitor cocktail according to the manufacturer’s instructions. Working dilutions of primary antibodies were dilulted 500, 2000, and 1000 times for anti-ICAM-1, anti-LDLR, and anti-actin antibodies, respectively. Working dilutions of secondary antibody was 1000, 1000, and 800 for anti-ICAM-1, anti-LDLR, and anti-actin, respectively. Ten micrograms of cell lysates from different treatments were mixed with an equal volume of 5× Laemmli sample buffer, boiled in 10 min, and resolved by electrophoresis in 11% sodium dodecyl sulfate-polyacrylamide gels (SDS-PAGE). […] Differences in protein expressions were quantified using a Molecular Imager Gel Doc XR system (Bio-Rad, Hercules, CA) and normalized to actin expression on the same membrane.
The expressions of ICAM-1 and LDLR were examined using real-time qRT-PCR and Western blot. Furthermore, concentrations of soluble ICAM-1 (sICAM-1) in cell-free culture supernatants 2 days after treatment were measured using a sICAM-1 ELISA Kit (Pierce Biotechnology, Rockford, IL) according to the manufacturer’s instructions. […] The concentrations of ICAM-1 in the test samples were determined from OD values using standard curve of each assay.

[1] = HRV4, 0 h, 100 μg/mL PA, 20 μg/mL PGG, 100 μg/mL ribavirin, read-out: inhibition of HRV-4 infection, added at virus inoculation (0 h)
[2] = HRV4, read-out: inhibition of HRV-4 infection, added prior (–1 h) or post (1–24 h) infection, 100 μg/mL PA, 20 μg/mL PGG

Row | Compound | inhibition at 100 µg/mL (HRV-4; [1]) [%] | inhibition at 100 µg/mL (HRV-4; [2]) [%] | effect on LDLR mRNA expression (LDLR) | TLR3 mRNA expression vs cultures without treatment (TLR3) | IL-6 concentrations in infected cultures (IL-6) | IL-6 concentrations in mock cultures vs mock cultures without treatment (IL-6; noninfected MRC5 supernatants) | reduction of HRV-2 RNA replication level (HRV-2) [fold] | mICAM-1 protein levels vs cultures without treatment (mICAM-1) | inhibition at 20 µg/mL (HRV-4; [1]) [%] | inhibition at 20 µg/mL (HRV-4; [2]) [%]
1 | COc1ccc(C(C)=O)c(O)c1 [PA, paeonol] | 57.2 | ≤ 40 | decreased | significantly lower | reduced | higher | 30.1 | similar |  | 
2 | O=C(OC[C@H]1O[C@@H](OC(=O)c2cc(O)c(O)c(O)c2)[C@H](OC(=O)c2cc(O)c(O)c(O)c2)[C@@H](OC(=O)c2cc(O)c(O)c(O)c2)[C@@H]1OC(=O)c1cc(O)c(O)c(O)c1)c1cc(O)c(O)c(O)c1 [PGG, 1,2,3,4,6-penta-O-galloyl-β-D-glucopyranose] |  |  | decreased | significantly lower | reduced |  | 14.3 | similar | 54.5 | ≤ 40

Source: PMC4393083, “Antiviral Activity and Possible Mechanism of Action of Constituents Identified in Paeonia lactiflora Root toward Human Rhinoviruses” (PLoS ONE, 2015)
